Results taken from patent US6686469B2, “Pesticidal pyrimidine-derivatives” (Novartis Animal Health US, Inc., priority 1999, dated 2004).

Test system: Heliothis virescens
Experiment: Activity against Heliothis virescens
Assay type: in vivo
Conditions: young soya plants sprayed with 100 ppm active ingredient, first-stage caterpillars, 6 days later
Experimental: Young soya plants are sprayed with an aqueous emulsion spray mixture containing 100 ppm of active ingredient, when the spray coating has dried on they are colonised with 10 caterpillars of the first stage of Heliothis virescens and then placed in a plastic container. The percentage reduction of the population and of the feeding damage (% response) is determined 6 days later by comparing the total number of dead caterpillars and the feeding damage on the treated plants with those on the untreated plants.
For `Fc1cccc(Cl)c1-c1ncc(-c2ccc(-c3ccc(C(F)(F)F)cc3)cc2)cn1` [Compound 1.17], the “efficacy: percentage reduction of the population and of the feeding damage (% response)” value was “over 80%”.

Test system: not given
Experiment: not given
Conditions: not given
With `Fc1cccc(F)c1-c1ncc(-c2ccc(-c3ccc(C(F)(F)F)cc3)cc2)cn1` [Compound 1.2] the melting point was 252 to 254 °C. `FC(F)(F)c1ccc(-c2ccc(-c3cnc(-c4c(Cl)cccc4Cl)nc3)cc2)cc1` [Compound 1.3] gave a melting point of 207 to 208 °C. Work on `FC(F)(F)Oc1ccc(-c2ccc(-c3cnc(-c4c(Cl)cccc4Cl)nc3)cc2)cc1` [Compound 1.4] yielded a melting point of 179 to 181 °C. Work on `Clc1ccc(-c2ccc(-c3cnc(-c4c(Cl)cccc4Cl)nc3)cc2)cc1Cl` [Compound 1.6] yielded a melting point of 224 to 226 °C. `COc1ccc(-c2ccc(-c3cnc(-c4c(Cl)cccc4Cl)nc3)cc2)cc1` [Compound 1.7] gave a melting point of 242 to 244 °C. In the case of `Clc1ccc(-c2ccc(-c3cnc(-c4c(Cl)cccc4Cl)nc3)cc2)cc1` [Compound 1.8], the melting point is reported as 205 to 220 °C. Compound `Clc1cc(Cl)cc(-c2ccc(-c3cnc(-c4c(Cl)cccc4Cl)nc3)cc2)c1` [Compound 1.9] has a melting point of over 220 °C. In the case of `CC(C)(C)c1ccc(-c2ccc(-c3cnc(-c4c(Cl)cccc4Cl)nc3)cc2)cc1` [Compound 1.10], the melting point is reported as 200 to 202 °C. For `Fc1ccc(-c2ccc(-c3cnc(-c4c(F)cccc4Cl)nc3)cc2)cc1Cl` [Compound 1.11], the melting point was 186 to 189 °C. In the case of `Fc1cccc(Cl)c1-c1ncc(-c2ccc(-c3ccc(OC(F)(F)F)cc3)cc2)cn1` [Compound 1.12], the melting point is reported as 160 to 163 °C. `Fc1cccc(Cl)c1-c1ncc(-c2ccc(-c3ccc(Cl)c(Cl)c3)cc2)cn1` [Compound 1.13] gave a melting point of 196 to 199 °C. `Fc1cccc(Cl)c1-c1ncc(-c2ccc(-c3cccc(C(F)(F)F)c3)cc2)cn1` [Compound 1.14] showed a melting point of 187 to 190 °C. In the case of `COc1ccc(-c2ccc(-c3cnc(-c4c(F)cccc4Cl)nc3)cc2)cc1` [Compound 1.15], the melting point is reported as 176 to 179 °C. With `Fc1cccc(F)c1-c1ncc(-c2ccc(-c3cccc(C(F)(F)F)c3)cc2)cn1` [Compound 1.18] the melting point was 217 to 218 °C. With `Fc1cccc(F)c1-c1ncc(-c2ccc(-c3ccc(OC(F)(F)F)cc3)cc2)cn1` [Compound 1.19, 2-(2,6-difluorophenyl)-5-(4′-trifluoromethoxybiphenyl-4-yl)-pyrimidine] the melting point was 215 to 216 °C. In the case of `COc1ccccc1-c1ccc(-c2cnc(-c3c(F)cccc3F)nc2)cc1` [Compound 1.20], the melting point is reported as 150 to 151 °C. In the case of `Fc1cccc(F)c1-c1ncc(-c2ccc(-c3ccc(-c4ccccc4)cc3)cc2)cn1` [Compound 1.22], the melting point is reported as over 260 °C. For `Fc1ccc(-c2ccc(-c3cnc(-c4c(F)cccc4F)nc3)cc2)cc1` [Compound 1.23], the melting point was 212 to 213 °C. For `Fc1cccc(F)c1-c1ncc(-c2ccc(-c3ccccc3C(F)(F)F)cc2)cn1` [Compound 1.24], the melting point was 100 to 102 °C. `Fc1cccc(F)c1-c1ncc(-c2ccc(-c3ccc(Cl)cc3)cc2)cn1` [Compound 1.25] showed a melting point of 220 to 222 °C. Work on `Fc1cccc(F)c1-c1ncc(-c2ccc(-c3cccc(Cl)c3)cc2)cn1` [Compound 1.37] yielded a melting point of 178 to 179 °C. `CCOc1nc(-c2c(F)cccc2F)ncc1-c1ccc(-c2ccc(OC(F)(F)F)cc2)cc1` [Compound 1.58] gave a melting point of 146 to 147 °C. For `CCOc1nc(-c2c(F)cccc2F)ncc1-c1ccc(-c2ccc(C(F)(F)F)cc2)cc1` [Compound 1.59], the melting point was 170 to 172 °C. `CCOc1nc(-c2c(F)cccc2F)ncc1-c1ccc(-c2cc(Cl)cc(Cl)c2)cc1` [Compound 1.60] gave a melting point of 154 to 155 °C. In the case of `CCNc1nc(-c2c(F)cccc2F)ncc1-c1ccc(-c2ccc(C(F)(F)F)cc2)cc1` [Compound 1.67], the melting point is reported as 189 to 190 °C. `CCNc1nc(-c2c(F)cccc2F)ncc1-c1ccc(-c2cc(Cl)cc(Cl)c2)cc1` [Compound 1.68] showed a melting point of 202 to 203 °C. For `CN(C)c1nc(-c2c(F)cccc2F)ncc1-c1ccc(-c2ccc(OC(F)(F)F)cc2)cc1` [Compound 1.69], the melting point was 146 to 147 °C. Work on `CN(C)c1nc(-c2c(F)cccc2F)ncc1-c1ccc(-c2ccc(C(F)(F)F)cc2)cc1` [Compound 1.70] yielded a melting point of 166 to 168 °C. `CN(C)c1nc(-c2c(F)cccc2F)ncc1-c1ccc(-c2cc(Cl)cc(Cl)c2)cc1` [Compound 1.71] gave a melting point of 200 to 202 °C. For `CCSc1nc(-c2c(F)cccc2F)ncc1-c1ccc(-c2ccc(OC(F)(F)F)cc2)cc1` [Compound 1.72], the melting point was 127 to 128 °C. With `CCSc1nc(-c2c(F)cccc2F)ncc1-c1ccc(-c2ccc(C(F)(F)F)cc2)cc1` [Compound 1.73] the melting point was 145 to 146 °C. For `CCSc1nc(-c2c(F)cccc2F)ncc1-c1ccc(-c2cc(Cl)cc(Cl)c2)cc1` [Compound 1.74], the melting point was 154 to 156 °C. Compound `Fc1ccc(-c2ccc(-c3ccnc(-c4c(F)cccc4F)n3)cc2)cc1Cl` [Compound 2.1] has a melting point of 133 to 134 °C. With `Fc1cccc(F)c1-c1nccc(-c2ccc(-c3ccc(C(F)(F)F)cc3)cc2)n1` [Compound 2.2, 2-(2,6-difluorophenyl)-4-(4′-trifluoromethylbiphenyl-4-yl)-pyrimidine] the melting point was 141 to 142 °C. Work on `Fc1cccc(F)c1-c1nccc(-c2ccc(-c3ccc(OC(F)(F)F)cc3)cc2)n1` [Compound 2.3] yielded a melting point of 102 to 103 °C. With `Fc1cccc(F)c1-c1nccc(-c2ccc(-c3cc(Cl)cc(Cl)c3)cc2)n1` [Compound 2.5] the melting point was 116 to 126 °C. In the case of `Fc1cccc(F)c1-c1nccc(-c2ccc(-c3ccc(Cl)c(Cl)c3)cc2)n1` [Compound 2.6], the melting point is reported as 134 to 140 °C. Compound `Fc1cccc(F)c1-c1nccc(-c2ccc(-c3ccc(-c4ccccc4)cc3)cc2)n1` [Compound 2.7] has a melting point of 258 to 259 °C. With `Fc1ccc(-c2ccc(-c3ccnc(-c4c(F)cccc4F)n3)cc2)cc1` [Compound 2.8] the melting point was 145 to 146 °C. In the case of `Fc1cccc(F)c1-c1nccc(-c2ccc(-c3ccc(Cl)cc3Cl)cc2)n1` [Compound 2.9], the melting point is reported as 86 to 87 °C. For `Fc1cccc(F)c1-c1nccc(-c2ccc(-c3cccc(Cl)c3)cc2)n1` [Compound 2.10], the melting point was 82 to 83 °C. Compound `Fc1cccc(F)c1-c1nccc(-c2ccc(-c3ccc(Cl)cc3)cc2)n1` [Compound 2.11] has a melting point of 167 to 168 °C. Work on `Fc1cccc(F)c1-c1nccc(-c2ccc(-c3ccccc3C(F)(F)F)cc2)n1` [Compound 2.12] yielded a melting point of 179 to 180 °C. `Fc1cccc(F)c1C1N=CC=C(c2ccc(Br)cc2)N1Cl` (stereo not drawn) [Compound 3.354, 4-(4-bromophenyl)-2-(2,6-difluorophenyl)-3-chloropyrimidine] showed a melting point of 146 to 148 °C. With `N#CN1C(c2ccc(Br)cc2)=CC=NC1c1c(F)cccc1F` (stereo not drawn) [Compound 3.355, 4-(4-bromophenyl)-3-cyano-2-(2,6-difluorophenyl)-pyrimidine] the melting point was 146 to 148 °C. Compound `Fc1cccc(F)c1-c1ncc(-c2ccc(Br)cc2)cn1` [Compound P1.3, 5-(4-bromophenyl)-2-(2,6-difluorophenyl)-pyrimidine] has a melting point of 193 to 194 °C. With `Fc1cccc(F)c1-c1nccc(-c2ccc(Br)cc2)n1` [Compound P1.5, 4-(4-bromophenyl)-2-(2,6-difluorophenyl)-pyrimidine] the melting point was 130 to 131 °C.
